One data set concerns hMSCs. As to the kind of experiment: alamarBlue metabolic assay of hMSC proliferation after BIO dosing (Example 1). The note with it: for effect on hMSC population (alamarBlue): 24 hr dosing. Type of data set: cell-based, human. On the procedure: FIG. 1. Proliferative effect of BIO after 24 hr dosing; 0 μM (-□-, grey squares), 2 μM (-∘-, open circles), 5 μM (-▴-, black triangles), 10 μM (-X-, black crosses). Proliferation was assessed using alamarBlue metabolic assay. Error bars shown are standard error (n=3).
The small molecule GSK3β inhibitor 6-bromoindirubin-3′-oxime was synthesized as previously described (Polychronopoulos et al., J Med Chem. 2004; 47(4):935-46). It is also commercially available (such as from Sigma). The molecule was solubilized in dimethyl sulfoxide (DMSO) to specified concentrations. hMSCs were plated at a density of 5,000 cell/cm2 in 24-well tissue culture plates. Cells were allowed to become adherent for a period of 24 hrs before BIO was introduced. 10 μL of BIO in DMSO were added to 1 mL of culture media so that the final concentrations of 2, 5, and 10 μM were achieved. […] Culture continued over 33 days with media being replaced every three days. An alamarBlue cell viability assay was performed on days: −1 (before BIO treatment), 0, 4, 8, 12, 14, 17, 23, 26, 28, and 33. Cell population was normalized to alamarBlue readings after the initial period of 24 hr BIO dosing.

In another data set the test system is active nuclear β-catenin. The data set is described as follows: TOPFlash/FOPFlash reporter assay for active nuclear β-catenin in C3H10T1/2. Type of data set: cell-based, mouse. Particulars: for increase in normalized TOPFlash signal compared to untreated controls: after 24 hr treatment, C3H10T1/2. An excerpt: FIG. 3 Schematic representation of 3 hr C3H10T1/2 transfection with TOP/FOPFlash DNA plasmid followed by 24 hr exposure to BIO-containing media and subsequent analysis for active nuclear β-catenin over 5 days (A). Active nuclear β-catenin concentrations (TOPFlash) show a BIO-mediated dose-dependent increase immediately after BIO treatment as compared to control plasmid (FOPFlash) (B). Increased active nuclearβ-catenin concentrations persists for 3 days after BIO-treatment before returning to basal levels (C).
The β-catenin TOPFlash reporter plasmid and the FOPFlash mutant control (Addgene Plasmid #12456, and Addgene Plasmid #12457 were obtained in the form of DH5alpha bacterial stabs. Bacteria were streaked onto ampicillin-containing agar plates and grown overnight at 37° C. A single colony was selected, grown in 50 ml Luria-Bertani (LB) broth with 100 μg/ml ampicillin (Gibco) to select for ampicillin resistant colonies, and cultured at 37° C. under constant agitation for 24 hrs. Bacteria were centrifuged to form a pellet and plasmid DNA was purified using a Plasmid Midi Kit (Qiagen). Plasmid DNA was digested using EcoRI and PvuI restriction endonucleases (New England Biolabs) and fragments were separated on a 0.8% agarose gel. Molecular weights were verified using a standard DNA ladder (HyperLadder I, BioLine).
C3H10T1/2 mouse embryonic fibroblasts were seeded in multiple 48-well plates and treated with BIO containing growth media for 24 hrs to analyze the effects of β-catenin activity over time. […]
Luciferase activity was measured prior to BIO treatment (day 0), as well as on days 1, 2, 3, 4, and 5 after the 24 hr BIO treatment period. […] To each 96-well 25 μl of Luciferase Assay Reagent (Promega, Madison, Wis.) was added and total luminescence was measure immediately using a BioTek Synergy Mx plate-reader. Total luminescence was normalized to cellular DNA concentration using a Quant-iT PicoGreen dsDNA Assay Kit (Invitrogen) to account for well-to-well variability in cell density.

Turning to `O=C1Nc2cc(Br)ccc2/C1=C1/Nc2ccccc2/C1=N\O` [BIO, 6-bromoindirubin-3′-oxime], the “effect on hMSC population (alamarBlue)” value is given as “dose dependent proliferative response” in the data set on hMSCs (BIO 2-5 μM) and “did not have a noticeable effect” with hMSCs (BIO concentrations below 2 μM). The “effect of continual dosing on hMSCs” value in the data set with hMSCs (continual dosing with BIO, parallel study (data not shown)) is reported as “complete cell death by day 5”. Besides, the “increase in normalized TOPFlash signal compared to untreated controls” value in the data set on active nuclear β-catenin (2 μM BIO) stood at 71 fold; with active nuclear β-catenin (5 μM BIO) it was 106 fold. Moreover, the “persistence of elevated TOPFlash signaling after BIO was removed, before returning to basal levels” value in the data set with active nuclear β-catenin (C3H10T1/2, after 24 hr BIO treatment) was “three”.

The record behind these values is patent US9193954B2, “Methods and compositions for mesenchymal stem cell proliferation” (priority 2011, dated 2015).
